Source: ChEMBL document CHEMBL5465560, “Selectivity Literature for EUbOPEN Chemogenomic Library” (2024)

Key:
[1] = target: T1, Protein kinase C epsilon type (Homo sapiens) (UniProt Q02156); assay: Selectivity interaction (ProQinase) EUB0000171b PRKCE
T1 sequence (whole entry): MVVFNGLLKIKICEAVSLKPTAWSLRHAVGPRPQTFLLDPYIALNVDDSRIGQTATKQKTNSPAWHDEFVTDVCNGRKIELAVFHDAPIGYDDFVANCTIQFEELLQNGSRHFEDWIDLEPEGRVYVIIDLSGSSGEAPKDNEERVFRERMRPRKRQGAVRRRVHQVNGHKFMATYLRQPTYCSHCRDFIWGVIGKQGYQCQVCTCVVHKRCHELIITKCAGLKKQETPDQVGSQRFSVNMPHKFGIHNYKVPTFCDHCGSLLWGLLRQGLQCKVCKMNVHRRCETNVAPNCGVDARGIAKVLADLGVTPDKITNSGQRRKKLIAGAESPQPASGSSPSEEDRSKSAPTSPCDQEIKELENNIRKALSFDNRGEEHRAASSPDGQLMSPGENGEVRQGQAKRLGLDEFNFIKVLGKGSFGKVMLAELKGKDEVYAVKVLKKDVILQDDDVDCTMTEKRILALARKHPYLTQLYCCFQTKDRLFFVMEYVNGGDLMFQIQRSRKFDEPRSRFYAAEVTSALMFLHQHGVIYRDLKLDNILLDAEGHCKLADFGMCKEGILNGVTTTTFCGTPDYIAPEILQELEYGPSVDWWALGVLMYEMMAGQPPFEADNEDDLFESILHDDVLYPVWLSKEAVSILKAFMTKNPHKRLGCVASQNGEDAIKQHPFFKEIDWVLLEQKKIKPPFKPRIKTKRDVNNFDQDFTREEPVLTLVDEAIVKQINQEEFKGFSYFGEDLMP

[2] = target: T2, Protein kinase C iota type (Homo sapiens) (UniProt P41743); assay: Selectivity interaction (KinomeScan (DiscoverX)) EUB0000666a PRKCI; settings: at 10 µM
T2 sequence (whole entry): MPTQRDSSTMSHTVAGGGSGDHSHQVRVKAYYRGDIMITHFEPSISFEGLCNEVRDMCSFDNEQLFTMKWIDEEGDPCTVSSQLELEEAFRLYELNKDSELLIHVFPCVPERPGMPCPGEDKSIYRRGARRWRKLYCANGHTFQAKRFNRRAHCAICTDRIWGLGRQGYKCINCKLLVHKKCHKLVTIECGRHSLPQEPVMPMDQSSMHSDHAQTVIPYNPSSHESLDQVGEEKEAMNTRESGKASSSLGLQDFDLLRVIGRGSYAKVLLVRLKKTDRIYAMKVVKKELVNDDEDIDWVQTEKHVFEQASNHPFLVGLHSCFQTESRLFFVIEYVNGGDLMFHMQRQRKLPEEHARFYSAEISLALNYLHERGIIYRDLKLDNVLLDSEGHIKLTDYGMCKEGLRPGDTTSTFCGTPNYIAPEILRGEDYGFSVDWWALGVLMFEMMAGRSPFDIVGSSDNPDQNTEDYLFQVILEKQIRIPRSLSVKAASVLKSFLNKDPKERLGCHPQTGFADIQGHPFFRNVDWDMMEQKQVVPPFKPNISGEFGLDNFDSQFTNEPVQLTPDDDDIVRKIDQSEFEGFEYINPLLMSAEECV

[3] = target: T3, Mitogen-activated protein kinase kinase kinase 2 (Homo sapiens) (UniProt Q9Y2U5); assay: Selectivity interaction (ActivX KiNativ screen (kinase selectivity in THP-1 cell lysates)) EUB0000639a MAP3K2; type: subcellular; settings: lysate, at 0.04 µM
T3 sequence (whole entry): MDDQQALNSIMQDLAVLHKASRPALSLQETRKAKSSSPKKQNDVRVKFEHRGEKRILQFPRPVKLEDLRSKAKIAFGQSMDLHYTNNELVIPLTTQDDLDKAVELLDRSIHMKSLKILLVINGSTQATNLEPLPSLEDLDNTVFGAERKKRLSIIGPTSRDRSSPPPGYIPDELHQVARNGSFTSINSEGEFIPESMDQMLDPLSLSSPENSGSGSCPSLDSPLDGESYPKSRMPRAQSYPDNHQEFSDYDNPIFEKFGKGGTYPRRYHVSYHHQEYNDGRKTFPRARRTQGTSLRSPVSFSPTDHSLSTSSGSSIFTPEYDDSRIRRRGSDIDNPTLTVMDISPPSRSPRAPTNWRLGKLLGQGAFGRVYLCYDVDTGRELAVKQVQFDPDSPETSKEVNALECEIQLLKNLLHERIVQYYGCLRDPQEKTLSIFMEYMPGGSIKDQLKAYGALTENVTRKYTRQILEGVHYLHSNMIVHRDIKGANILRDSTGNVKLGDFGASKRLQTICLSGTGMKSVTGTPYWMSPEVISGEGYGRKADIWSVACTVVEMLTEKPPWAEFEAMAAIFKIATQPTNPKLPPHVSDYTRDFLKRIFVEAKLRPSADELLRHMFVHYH

[4] = target: T4, Serine/threonine-protein kinase Nek9 (Homo sapiens) (UniProt Q8TD19); assay: Selectivity interaction (SelectScreen profiling (Invitrogen)) EUB0000607a NEK9; settings: at 2 µM
T4 sequence (whole entry): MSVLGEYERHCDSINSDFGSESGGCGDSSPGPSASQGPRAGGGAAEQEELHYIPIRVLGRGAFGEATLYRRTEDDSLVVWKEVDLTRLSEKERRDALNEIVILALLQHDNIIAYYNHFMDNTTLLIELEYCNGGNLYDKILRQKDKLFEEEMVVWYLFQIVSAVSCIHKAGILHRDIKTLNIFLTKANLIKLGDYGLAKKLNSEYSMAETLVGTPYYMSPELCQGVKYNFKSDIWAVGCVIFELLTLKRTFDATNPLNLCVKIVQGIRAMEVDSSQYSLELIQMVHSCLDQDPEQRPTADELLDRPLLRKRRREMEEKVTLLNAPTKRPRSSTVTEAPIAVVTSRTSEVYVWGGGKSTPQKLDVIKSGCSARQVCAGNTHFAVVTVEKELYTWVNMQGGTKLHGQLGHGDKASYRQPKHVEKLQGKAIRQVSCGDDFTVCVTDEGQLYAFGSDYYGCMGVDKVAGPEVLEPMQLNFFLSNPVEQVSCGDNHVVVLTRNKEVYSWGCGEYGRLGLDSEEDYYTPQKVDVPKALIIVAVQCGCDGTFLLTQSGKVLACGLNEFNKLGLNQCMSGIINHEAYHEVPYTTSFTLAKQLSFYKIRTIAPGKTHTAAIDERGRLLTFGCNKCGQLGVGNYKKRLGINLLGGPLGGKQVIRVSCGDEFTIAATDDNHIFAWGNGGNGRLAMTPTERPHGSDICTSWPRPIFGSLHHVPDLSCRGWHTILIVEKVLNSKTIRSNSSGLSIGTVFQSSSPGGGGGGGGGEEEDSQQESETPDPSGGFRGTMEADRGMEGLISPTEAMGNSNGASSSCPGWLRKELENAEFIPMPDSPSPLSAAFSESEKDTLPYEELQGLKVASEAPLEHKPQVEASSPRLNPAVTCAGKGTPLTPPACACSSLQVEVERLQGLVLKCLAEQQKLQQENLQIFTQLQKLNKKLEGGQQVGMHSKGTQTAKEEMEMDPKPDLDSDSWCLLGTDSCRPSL

C=CC(=O)Nc1cccc(C(=O)Nc2ccc(Nc3cc(-c4[nH]c(SC)nc4C)ccn3)cc2)c1
% of control ([1]; at 1 µM): 97%
% of control ([1]; at 5 µM): 108%

O=C(NOC[C@H](O)CO)c1ccc(F)c(F)c1Nc1ccc(I)cc1F
% of control [2]: 70%

CC[C@@H]1[C@H](F)C(=O)N[C@@H]1COc1nccc2cc(C(N)=O)c(OC)cc12 [ZIMLOVISERTIB]
% of inhibition [3]: 1.8%

CNC(=O)Nc1ccc(-c2nc(N3CC4CCC(C3)O4)c3cnn(C4CCC5(CC4)OCCO5)c3n2)cc1
% of inhibition [4]: -2%
